Drawing on patent US9376418B2, “Substituted pyridine spleen tyrosine kinase (SYK) inhibitors” (Merck Sharp & Dohme Corp., priority 2012, dated 2016), this text covers IC50 for 24 compounds.

SMILES strings stand for the structures. pIC50: −log10 of the molar value. Bounds are passed on as bounds.

The assay has as its target T1, recombinant human GST-SYK (Homo sapiens, UniProt P43405).
T1 construct: purchased Carna Biosciences 08-176
Put plainly: Homogeneous Time-Resolved Fluorescence (HTRF) assay for the recombinant human Syk enzyme. To be noted: HTRF assay, recombinant human GST-SYK; IC50 given as class symbols; read-out: rhSYK Activity. It is filed as biochemical. A digest of the protocol: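 GST-hSYK ([…]) was preincubated with inhibitor (0.1% DMSO) for 10 min at room temperature in Tris-HCl pH 7.5 with tween 20 and DTT. Biotinylated peptide (250 nM), Mg (5 mM) and ATP (25 μM) were added for 45 min. The reaction was quenched with EDTA, and phosphotyrosine was read by Eu-antibody/SA-APC HTRF after 30 min.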
(In general: Time-resolved FRET reads energy transfer from a long-lived donor to a nearby acceptor.)
Turning to `Cc1cc(Nc2nccc(C(F)(F)F)n2)cc(-c2ccc(C(=O)NCc3cn(C)cn3)nc2)c1` [Example 16.17, N-[(1-methyl-1H-imidazol-4-yl)methyl]-5-(3-methyl-5-{[4-(trifluoromethyl)pyrimidin-2-yl]amino}phenyl)pyridine-2-carboxamide], the pIC50 was 6.00 to 7.00.
On to `Cc1cc(Nc2nccc(C(F)(F)F)n2)cc(-c2ccc(C(=O)NCc3ncnn3C)nc2)c1` [Example 16.27, N-[(1-methyl-1H-1,2,4-triazol-5-yl)methyl]-5-(3-methyl-5-{[4-(trifluoromethyl)pyrimidin-2-yl]amino}phenyl)pyridine-2-carboxamide], for which the pIC50 is 6.00 to 7.00.
As to `CNC(=O)CN(C)c1ccc(-c2cc(C)cc(Nc3nccc(C(F)(F)F)n3)c2)cn1` [Example 7.28, N,N~2~-dimethyl-N~2~-[5-(3-methyl-5-{[4-(trifluoromethyl)pyrimidin-2-yl]amino}phenyl)pyridin-2-yl]glycinamide], the pIC50 was more than 7.00.
Consider `CC1(C(=O)O)CCC(O)(c2ccc(-c3cc(Nc4nccc(C(F)(F)F)n4)cc(C(F)F)c3)cn2)CC1` (stereo not drawn) [Example 9.12, cis-4-{5-[3-(difluoromethyl)-5-{[4-(trifluoromethyl)pyrimidin-2-yl]amino}phenyl]pyridin-2-yl}-4-hydroxy-1-methylcyclohexanecarboxylic acid], for which the pIC50 is more than 7.00.
Regarding `Cc1cc(Nc2nccc(C(F)(F)F)n2)cc(-c2ccc(Oc3ccc(C(=O)O)cc3)nc2)c1` [Example 2.112, 4-{[5-(3-methyl-5-{[4-(trifluoromethyl)pyrimidin-2-yl]amino}phenyl)pyridin-2-yl]oxy}benzoic acid], the pIC50 is more than 7.00.
As for `Cc1cc(Nc2nccc(C(F)(F)F)n2)cc(-c2ccc(NCCC(=O)O)nc2)c1` [Example 7.88, N-[5-(3-methyl-5-{[4-(trifluoromethyl)pyrimidin-2-yl]amino}phenyl)pyridin-2-yl]-beta-alanine], the pIC50 is more than 7.00.
For `Cc1cc(Nc2nccc(C(F)(F)F)n2)cc(-c2ccc([C@]3(O)CC[C@@](C)(C(=O)O)CC3)nc2)c1` [Example 9.11, cis-4-hydroxy-1-methyl-4-[5-(3-methyl-5-{[4-(trifluoromethyl)pyrimidin-2-yl]amino}phenyl)pyridin-2-yl]cyclohexanecarboxylic acid], the pIC50 is more than 7.00.
For `Cc1cc(Nc2nccc(C(F)(F)F)n2)cc(-c2ccc(N3CCC[C@H]3C(=O)NCC(=O)O)nc2)c1` [Example 7.83, 1-[5-(3-methyl-5-{[4-(trifluoromethyl)pyrimidin-2-yl]amino}phenyl)pyridin-2-yl]-L-prolylglycine], the pIC50 was more than 7.00.
In the case of `Cc1cc(Nc2nccc(C(F)(F)F)n2)cc(-c2ccc(O)nc2)c1` [Example 4.8, 5-(3-methyl-5-{[4-(trifluoromethyl)pyrimidin-2-yl]amino}phenyl)pyridin-2-ol], the pIC50 is 6.00 to 7.00.
For the compound `Cc1cc(Nc2nccc(C(F)(F)F)n2)cc(-c2ccc(NCC3CCC(=O)N3)nc2)c1` (stereo not drawn) [Example 7.16, 5-({[5-(3-methyl-5-{[4-(trifluoromethyl)pyrimidin-2-yl]amino}phenyl)pyridin-2-yl]amino}methyl)pyrrolidin-2-one], the pIC50 was more than 7.00.
Consider `Cc1cc(Nc2nccc(C(F)(F)F)n2)cc(-c2ccc(C(=O)N(C)CCC3OCCO3)nc2)c1` [Example 16.25, N-[2-(1,3-dioxolan-2-yl)ethyl]-N-methyl-5-(3-methyl-5-{[4-(trifluoromethyl)pyimidin-2-yl]amino}phenyl)pyridine-2-carboxamide], for which the pIC50 was 6.00 to 7.00.
Take `Cc1cc(Nc2nccc(C(F)(F)F)n2)cc(-c2ccc(N[C@H](Cc3c[nH]cn3)C(=O)O)nc2)c1` [Example 7.73, N-[5-(3-methyl-5-{[4-(trifluoromethyl)pyrimidin-2-yl]amino}phenyl)pyridin-2-yl]-D-histidine]: the pIC50 was more than 7.00.
Regarding `FC(F)(F)c1ccnc(Nc2cc(-c3cccc(N4CCOCC4)n3)cc(N3CCOCC3)c2)n1` [Example 1.3, N-[3-morpholin-4-yl-5-(6-morpholin-4-ylpyridin-2-yl)phenyl]-4-(trifluoromethyl)pyrimidin-2-amine], the pIC50 is more than 7.00.
In the case of `Oc1ccc(-c2cccc(Nc3nccc(C(F)(F)F)n3)c2)cn1` [Example 2.43, 5-(3-{[4-(trifluoromethyl)pyrimidin-2-yl]amino}phenyl)pyridin-2-ol], the pIC50 is 6.00 to 7.00.
`CC[C@@H](C)[C@@H](Nc1ccc(-c2cc(C)cc(Nc3nccc(C(F)(F)F)n3)c2)cn1)C(=O)O` [Example 7.101, N-[5-(3-methyl-5-{[4-(trifluoromethyl)pyrimidin-2-yl]amino}phenyl)pyridin-2-yl]-D-isoleucine]: the pIC50 is more than 7.00.
Under `Cc1cc(Nc2nccc(C(F)(F)F)n2)cc(-c2ccc(N3CCN(C)C(=O)C3C)nc2)c1` (stereo not drawn) [Example 7.55, 1,3-dimethyl-4-[5-(3-methyl-5-{[4-(trifluoromethyl)pyrimidin-2-yl]amino}phenyl)pyridin-2-yl]piperazin-2-one] stands more than 7.00.
Turning to `Cc1cc(Nc2nccc(C(F)(F)F)n2)cc(-c2ccc(NC(=O)CC(=O)O)nc2)c1` [Example 8.4, 3-{[5-(3-methyl-5-{[4-(trifluoromethyl)pyrimidin-2-yl]amino}phenyl)pyridin-2-yl]amino}-3-oxopropanoic acid], the pIC50 is more than 7.00.
With `Cc1cc(Nc2nccc(C(F)(F)F)n2)cc(-c2ccc(N[C@@H](CO)C(=O)O)nc2)c1` [Example 7.109, N-[5-(3-methyl-5-{[4-(trifluoromethyl)pyrimidin-2-yl]amino}phenyl)pyridin-2-yl]-L-serine], the pIC50 was more than 7.00.
For the compound `Cc1cc(Nc2ncc(F)c(C3CC3)n2)cc(-c2ccc(N3CC[C@H]3C(=O)O)nc2)c1` [Example 7.161, (2S)-1-(5-{3-[(4-cyclopropyl-5-fluoropyrimidin-2-yl)amino]-5-methylphenyl}pyridin-2-yl)azetidine-2-carboxylic acid], the pIC50 was more than 7.00.
As for `Cc1cc(Nc2nccc(C(F)(F)F)n2)cc(-c2ccc(N[C@H](C)C(=O)O)nc2)c1` [Example 7.154, N-[5-(3-methyl-5-{[4-(trifluoromethyl)pyrimidin-2-yl]amino}phenyl)pyridin-2-yl]-D-alanine], the pIC50 is more than 7.00.
Regarding `Cc1cc(Nc2nccc(C(F)(F)F)n2)cc(-c2cncc(C(F)(F)F)c2)c1` [Example 2.54, N-{3-methyl-5-[5-(trifluoromethyl)pyridin-3-yl]phenyl}-4-(trifluoromethyl)pyrimidin-2-amine], the pIC50 was 6.00 to 7.00.
Regarding `CCOC(=O)CCc1cccc(-c2cc(C)cc(Nc3nccc(C4CC4)n3)c2)n1` [Example 2.38, ethyl 3-(6-{3-[(4-cyclopropylpyrimidin-2-yl)amino]-5-methylphenyl}pyridin-2-yl)propanoate], the pIC50 was 6.00 to 7.00.
Consider `Cc1cc(Nc2nccc(C(F)(F)F)n2)cc(-c2cncc(C(C)(O)C(F)(F)F)c2)c1` (stereo not drawn) [Example 2.75, 1,1,1-trifluoro-2-[5-(3-methyl-5-{[4-(trifluoromethyl)pyrimidin-2-yl]amino}phenyl)pyridin-3-yl]propan-2-ol], for which the pIC50 is more than 7.00.
Next, `Cc1cc(Nc2nccc(C(F)(F)F)n2)cc(-c2ccc(CCc3nnn[nH]3)nc2)c1` [Example 13.4, N-(3-Methyl-5-{6-[2-(1H-tetrazol-5-yl)ethyl]pyridin-3-yl}phenyl)-4-(trifluoromethyl)pyrimidin-2-amine]: more than 7.00.
